Test system: LTD4
Assay: LTD4 antagonism in isolated guinea-pig trachea (LTD4-induced contraction)
Format: cell-based
Details: 5 min, test compound 10^-5 g/ml, LTD4 2×10^-8 g/ml; for inhibition at 10 µg/mL: Cavia porcellus
Experimental: (ii) LTC4 and LTD4 antagonisms in guinea-pig trachea
Antagonism for LTC4 and LTD4 were determined in isolated guinea-pig trachea prepared as spiral strip. 10 Tracheal preparations were suspended under 1 g tension in […] and they were incubated for 1 hr prior to use. Contractile responses to LTC4 (2×10^-8 g/ml) and LTD4 (2×10^-8 g/ml) were obtained after the maximal response to histamine (10^-4 M). Test compounds dissolved in 100% dimethyl sulfoxide were added to the organ baths (final concentration of 10^-5 g/ml) 5 min prior to LTC4 and LTD4 addition, and then contractile responses to LTC4 and LTD4 were compared with those of control which was obtained from a paired trachea in the absence of test compounds. LTC4 - and LTD4 -induced contractions were expressed as a percentage of the maximal response to histamine. The antagonism was determined as follows: Antagonism (%)=(1.0-% contraction in test/% contraction in control)×100

SMILES	inhibition at 10 µg/mL	LTD4 antagonism
COc1cccc(CNc2cnn(C(C)C)c(=O)c2Cl)c1 [Compound No. 7]	92%	–
COc1cccc(CNc2cnn(C(C)(C)C)c(=O)c2Cl)c1 [Compound No. 8]	53%	–
CCc1c(NCc2ccc(C)cc2)cnn(C(C)(C)C)c1=O [Compound No. 36, 4-Ethyl-5-(4-methylbenzylamino)-2-t-butyl-3(2H)pyridazinone]	19%	–
C=CCNC(=O)c1ccc(CNc2cnn(C(C)(C)C)c(=O)c2Cl)cc1 [Compound No. 54, 4-Chloro-5-(4-allylaminocarbonylbenzylamino)-2-t-butyl-3(2H)pyridazinone]	10%	–
CCOC(=O)CCNC(=O)/C=C/c1ccc(CNc2cnn(C(C)(C)C)c(=O)c2Cl)cc1 [Compound No. 60]	15%	–
CC(C)(C)n1ncc(NCc2ccc(/C=C/C(=O)NCCC(=O)O)cc2)c(Cl)c1=O [Compound No. 61, 4-Chloro-5-[4-(β-carboxyethylaminocarbonyl-2-transethenyl)benzylamino]-2-t-butyl-3(2H)pyridazinone]	21%	–
CC(C)n1ncc(NCc2cccc(OCc3ccccc3)c2)c(Cl)c1=O [Compound No. 95, 4-Chloro-5-(3-benzyloxybenzylamino)-2-i-propyl-3-(2H)pyridazinone]	62%	–
COc1ccc(CNc2cnn(C(C)C)c(=O)c2)c(OC)c1 [Compound No. 100, 5-(2,4-dimethoxybenzylamino)-2-i-propyl-3(2H)pyridazinone]	21%	–
CCCN(CCC)C(=O)c1ccc(CNc2cnn(C(C)C)c(=O)c2Cl)cc1 [Compound No. 125, 4-Chloro-5-(4-di-n-propylaminocarbonylbenzylamino)-2-i-propyl-3(2H)pyridazinone]	53%	–
CC(C)n1ncc(NCc2cccc(O)c2)c(Cl)c1=O [Compound No. 137, 4-Chloro-5-(3-hydroxybenzylamino)-2-i-propyl-3-(2H)pyridazinone]	96%	–
CC(C)n1ncc(NCc2cccc(OCCCCC(=O)OC(C)(C)C)c2)c(Cl)c1=O [Compound No. 139, 4-Chloro-5-[3-(4-t-butoxycarbonyl)butoxybenzylamino]-2-i-propyl-3(2H)pyridazinone]	57%	–
CC(C)n1ncc(NCc2ccc(C=O)cc2)c(Cl)c1=O [Compound No. 140, 4-Chloro-5-(4-formylbenzylamino)-2-i-proyl-3(2H)pyridazinone]	77%	–
CC(C)n1ncc(NCc2cccc(OCCCCC(=O)O)c2)c(Cl)c1=O [Compound No. 142, 4-Chloro-5-[3-(4-carboxy)butoxybenzylamino]-2-i-propyl-3(2H)pyridazinone]	41%	–
COC(=O)CCCCOc1cccc(CNc2cnn(C(C)C)c(=O)c2Cl)c1 [Compound No. 144]	44%	–
CNC(=O)CCCCOc1cccc(CNc2cnn(C(C)C)c(=O)c2Cl)c1 [Compound No. 146, 4-Chloro-5-[3-(4-N-methylaminocarbonyl)butoxybenzylamino]-2-i-propyl-3(2H)pyridazinone]	32%	–
CC(C)n1ncc(NCc2cccc(OCCCCCO)c2)c(Cl)c1=O [Compound No. 147, 4-Chloro-5-[3-(5-hydroxy)pentoxybenzylamino]-2-i-propyl-3(2H)pyridazinone]	73%	–
COCCCCCOc1cccc(CN(C)c2cnn(C(C)C)c(=O)c2Cl)c1 [Compound No. 149, 4-Chloro-5-[3-(5-methoxy)pentoxy-N-methylbenzylamino]-2-i-propyl-3(2H)pyridazinone]	68%	–
CC(C)n1ncc(N(C)Cc2cccc(OCCCCCO)c2)c(Cl)c1=O [Compound No. 150, 4-Chloro-5-[3-(5-hydroxy)pentoxy-N-methyl-benzylamino]-2-i-propyl-3(2H)pyridazinone]	57%	–
COc1ccc(CNc2cnn(C(C)C)c(=O)c2C)cc1 [Compound No. 151, 4-Methyl-5-(4-methoxybenzylamino)-2-i-propyl-3(2H)-pyridazinone]	78%	–
CCOc1ccc(CNc2cnn(C(C)C)c(=O)c2Br)cc1 [Compound No. 164, 4-Bromo-5-(4-ethoxybenzylamino)-2-i-propyl-3(2H)pyridazinone]	82%	–
COc1ccc(CNc2cnn(C(C)(C)C)c(=O)c2Br)cc1OC [compound 17]	80%	–
CCCCCOc1cc(CNc2cnn(CC)c(=O)c2Cl)ccc1OC [compound 19]	66%	–
CCCCCOc1cc(CNc2cnn(C(C)(C)C)c(=O)c2Cl)ccc1OC [compound 20]	17%	–

SMILES	inhibition at 10 µg/mL	LTD4 antagonism
CC(C)n1ncc(NCc2ccc(N(C)C)cc2)c(Cl)c1=O [compound 26]	–	38%
CN(C)c1ccc(CNc2cnn(C(C)(C)C)c(=O)c2Br)cc1 [compound 28]	52%	–
CCCN(CCC)C(=O)c1ccc(CNc2cnn(C(C)(C)C)c(=O)c2Cl)cc1 [compound 39]	67%	–
CC(C)n1ncc(NCc2ccc(N(C)C)cc2)c(Cl)c1=O [compound 45]	–	14%
CCn1ncc(NCc2ccc(N(C)C)cc2)c(Cl)c1=O [compound 46]	49%	–
CN(C)c1ccc(CNc2cnn(C(C)(C)C)c(=O)c2Br)cc1 [compound 47]	–	65%
CN(C)CCNC(=O)c1ccc(CNc2cnn(C(C)(C)C)c(=O)c2Cl)cc1 [compound 50]	–	12%
CCOCCNC(=O)c1ccc(CNc2cnn(C(C)(C)C)c(=O)c2Cl)cc1 [compound 56]	19%	–
CCOCCCNC(=O)c1ccc(CNc2cnn(C(C)(C)C)c(=O)c2Cl)cc1 [compound 57]	27%	–
CN(C)CCNC(=O)c1ccc(CNc2cnn(C(C)(C)C)c(=O)c2Cl)cc1 [compound 58]	23%	–
CCc1ccc(CNc2cnn(CC)c(=O)c2Cl)cc1 [compound 81]	68%	–
CCc1cc(CNc2cnn(C(C)C)c(=O)c2Cl)ccc1OCc1ccccc1 [compound 82]	46%	–
CCc1cc(CNc2cnn(CC)c(=O)c2Cl)ccc1OCc1ccccc1 [compound 83]	74%	–
CCc1cc(CNc2cnn(C(C)C)c(=O)c2Cl)ccc1OC [compound 84]	96%	–
CCc1cc(CNc2cnn(CC)c(=O)c2Cl)ccc1OC [compound 85]	91%	–
CCOc1ccccc1CNc1cnn(C(C)C)c(=O)c1Cl [compound 92]	92%	–
CC(C)n1ncc(NCc2ccc(OCc3ccccc3)cc2)c(Cl)c1=O [compound 96]	59%	–
COc1cc(CNc2cnn(C(C)C)c(=O)c2Cl)cc(OC)c1 [compound 98]	55%	–
COc1ccc(OC)c(CNc2cnn(C(C)C)c(=O)c2Cl)c1 [compound 104]	68%	–
CCOc1ccc(CNc2cnn(C(C)C)c(=O)c2Cl)cc1OC [compound 107]	65%	–
CCCOc1ccc(CNc2cnn(CC)c(=O)c2Cl)cc1OC [compound 108]	53%	–
CCOc1cccc(CNc2cnn(CC)c(=O)c2Cl)c1OC [compound 110]	69%	–
CCOc1cccc(CNc2cnn(C(C)C)c(=O)c2Cl)c1OC [compound 111]	72%	–

SMILES	inhibition at 10 µg/mL	LTD4 antagonism
CCOc1cc(CNc2cnn(C(C)C)c(=O)c2Cl)ccc1OCc1ccccc1 [compound 113]	40%	–
CCOc1cccc(CNc2cnn(C(C)C)c(=O)c2Cl)c1OCc1ccccc1 [compound 114]	77%	–
CCOc1cc(CNc2cnn(CC)c(=O)c2Cl)ccc1OCc1ccccc1 [compound 115]	73%	–
CCOc1cccc(CNc2cnn(CC)c(=O)c2Cl)c1OCc1ccccc1 [compound 116]	89%	–
CCCOc1cc(CNc2cnn(C(C)C)c(=O)c2Cl)ccc1OCc1ccccc1 [compound 117]	25%	–
CCCOc1cc(CNc2cnn(CC)c(=O)c2Cl)ccc1OCc1ccccc1 [compound 118]	61%	–
COc1cc(CNc2cnn(C(C)(C)C)c(=O)c2Cl)cc(OC)c1OC [compound 120]	26%	–
CCn1ncc(NCc2cc(OC)c(OC)c(OC)c2)c(Cl)c1=O [compound 121]	31%	–
COc1cc(CNc2cnn(C(C)C)c(=O)c2Cl)cc(OC)c1OC [compound 122]	23%	–
CC(C)n1ncc(NCc2ccc(Cl)cc2)c(Cl)c1=O [compound 123]	88%	–
CCn1ncc(NCc2ccc(SC)cc2)c(Cl)c1=O [compound 124]	71%	–
CCCn1ncc(NCc2ccc(N(C)C)cc2)c(Cl)c1=O [compound 126]	63%	–
CCOc1cccc(CNc2cnn(C(C)C)c(=O)c2Cl)c1O [compound 127]	76%	–
CCOc1cccc(CNc2cnn(C(C)C)c(=O)c2)c1O [compound 128]	21%	–
CCOc1cccc(CNc2cnn(CC)c(=O)c2Cl)c1O [compound 129]	48%	–
CC(C)n1ncc(NCc2ccc(O)cc2)c(Cl)c1=O [compound 130]	100%	–
CCc1cc(CNc2cnn(C(C)C)c(=O)c2Cl)ccc1O [compound 131]	52%	–
CCc1cc(CNc2cnn(CC)c(=O)c2Cl)ccc1O [compound 132]	61%	–
CCCOc1cc(CNc2cnn(C(C)C)c(=O)c2Cl)ccc1O [compound 133]	66%	–
CCCOc1cc(CNc2cnn(CC)c(=O)c2Cl)ccc1O [compound 134]	75%	–
CCOc1cc(CNc2cnn(C(C)C)c(=O)c2Cl)ccc1O [compound 135]	61%	–

— US5098900A, “3(2H)pyridazinone, process for its preparation and anti-allergic agent containing it” (Nissan Chemical Industries Ltd., priority 1984, dated 1992)
